Measured values from BindingDB's records for doi:10.1016/0960-894X(95)00091-7 (1995).

Assays:
[1] = Compound was tested for its affinity towards Alpha-2 adrenergic receptor
[2] = Compound was tested for its ability inhibit forskolin-stimulated activity of adenylate cyclase coupled to human 5-HT 1D-beta receptor in CHO-K1 cells
[3] = Compound was tested for its ability inhibit forskolin-stimulated activity of adenylate cyclase coupled to human 5-hydroxytryptamine 1D receptor beta in CHO-K1 cells; value ranges from 2.8-6.5
[4] = Compound was tested for its ability inhibit forskolin-stimulated activity of adenylate cyclase coupled to human 5-hydroxytryptamine 1D receptor beta in CHO-K1 cells; value ranges from 0.24-0.55
[5] = Compound was tested for its ability inhibit forskolin-stimulated activity of adenylate cyclase coupled to human 5-HT 1D-beta receptor in CHO-K1 cells; remark: listed apart in the source
[6] = Binding affinity towards cloned human 5-hydroxytryptamine 1D receptor beta was determined
[7] = Compound was tested for its ability inhibit forskolin-stimulated activity of adenylate cyclase coupled to human 5-hydroxytryptamine 1D receptor beta in CHO-K1 cells; value ranges from 0.24-0.55; remark: listed apart in the source

Work on `Cc1ccccc1N1CCN(C(=O)COc2ccc3[nH]cc(CCN)c3c2)CC1` yielded an IC50 [1] greater than 10000 nM.

With `CCCCCCCCCOc1ccc2[nH]cc(CCN)c2c1` [2-(5-Nonyloxy-1H-indol-3-yl)-ethylamine] the EC50 [2] was 68 nM.

In the case of `NCCc1c[nH]c2ccc(OCC(=O)N3CCN(c4cccc5ccccc45)CC3)cc12` [2-[3-(2-Amino-ethyl)-1H-indol-5-yloxy]-1-(4-naphthalen-1-yl-piperazin-1-yl)-ethanone], the EC50 [3] is reported as 2.8 nM, the IC50 [1] is reported as greater than 1000 nM and the Ki [4] is reported as 0.52 nM.

`NCCc1c[nH]c2ccc(OCC(=O)N3CCN(c4ccccc4)CC3)cc12` [2-[3-(2-Amino-ethyl)-1H-indol-5-yloxy]-1-(4-phenyl-piperazin-1-yl)-ethanone] gave an EC50 [5] of 0.45 nM and a Ki [6] of 0.6 nM.

Work on `COc1cccc(N2CCN(C(=O)COc3ccc4[nH]cc(CCN)c4c3)CC2)c1` [2-[3-(2-Amino-ethyl)-1H-indol-5-yloxy]-1-[4-(3-methoxy-phenyl)-piperazin-1-yl]-ethanone] yielded an EC50 [7] of 0.24 nM and a Ki [6] of 0.4 nM.
